Patent US20260265233A1, “BENZOTHIOPHENE DERIVATIVES AS RXFP1 AGONISTS” (BRISTOL-MYERS SQUIBB COMPANY, priority 2021, published 2026)

Target: T1, human RXFP1 (Homo sapiens, UniProt Q9HBX9)
T1 construct: expressed in transfected cells
T1 sequence (Q9HBX9 1-757): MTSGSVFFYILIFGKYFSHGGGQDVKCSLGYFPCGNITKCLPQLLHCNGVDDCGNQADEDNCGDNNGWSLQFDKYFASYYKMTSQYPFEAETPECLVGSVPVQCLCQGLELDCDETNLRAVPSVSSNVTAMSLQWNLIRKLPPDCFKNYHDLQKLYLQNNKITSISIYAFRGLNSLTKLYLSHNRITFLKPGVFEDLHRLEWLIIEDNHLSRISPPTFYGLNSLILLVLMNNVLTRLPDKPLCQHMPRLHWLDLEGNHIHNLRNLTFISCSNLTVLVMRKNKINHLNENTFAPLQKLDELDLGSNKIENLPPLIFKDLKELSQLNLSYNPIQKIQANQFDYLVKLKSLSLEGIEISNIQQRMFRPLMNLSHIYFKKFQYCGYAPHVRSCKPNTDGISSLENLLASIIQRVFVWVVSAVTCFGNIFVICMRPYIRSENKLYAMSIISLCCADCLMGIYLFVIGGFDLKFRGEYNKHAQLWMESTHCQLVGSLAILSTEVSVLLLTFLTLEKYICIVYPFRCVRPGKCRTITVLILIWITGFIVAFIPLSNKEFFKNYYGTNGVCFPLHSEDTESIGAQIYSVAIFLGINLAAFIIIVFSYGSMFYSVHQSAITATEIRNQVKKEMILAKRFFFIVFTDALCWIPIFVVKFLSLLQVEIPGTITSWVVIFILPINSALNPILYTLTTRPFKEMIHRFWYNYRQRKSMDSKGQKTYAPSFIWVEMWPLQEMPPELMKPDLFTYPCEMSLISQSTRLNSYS
Test: hRXFP1 HEK293 cAMP assay (HTRF)
Assay type: cell-based
Conditions: HEK293 cells stably expressing human RXFP1; 30 min at rt; intracellular cAMP by HTRF
Experimental: RXFP1 Cyclic Adenosine Monophosphate (cAMP) Assays. Human embryonic kidney cells 293 (HEK293) cells and HEK293 cells stably expressing human RXFP1, were cultured in MEM medium supplemented with 10% qualified FBS, and 300 μg/ml hygromycin (Life Technologies). Cells were dissociated and suspended in assay buffer. The assay buffer was HBSS buffer (with calcium and magnesium) containing 20 mM HEPES, 0.05% BSA, and 0.5 mM IBMX. Cells (3000 cells per well, except 1500 cell per well for HEK293 cells stably expressing human RXFP1) were added to 384-well Proxiplates (Perkin-Elmer). Cells were immediately treated with test compounds in DMSO (2% final) at final concentrations in the range of 0.010 nM to 50 μM. Cells were incubated for 30 min at rt. The level of intracellular cAMP was determined using the HTRF HiRange cAMP assay reagent kit (Cisbio) according to manufacturer's instructions. Solutions of cryptate conjugated anti-cAMP and d2 fluorophore-labelled cAMP were made in a supplied lysis buffer separately. Upon completion of the reaction, the cells were lysed with equal volume of the d2-cAMP solution and anti-cAMP solution. After a 1 h rt incubation, time-resolved fluorescence intensity was measured using the Envision (Perkin-Elmer) at 400 nm excitation and dual emission at 590 nm and 665 nm. A calibration curve was constructed with an external cAMP standard at concentrations ranging from 2.7 μM to 0.1 pM by plotting the fluorescent intensity ratio from 665 nm emission to the intensity from the 590 nm emission against cAMP concentrations. The potency and activity of a compound to […] cAMP production was then determined by fitting to a 4-parametric logistic equation from a plot of cAMP level versus compound concentrations.
The examples disclosed below were tested in the human RXFP1 (hRXFP1) HEK293 cAMP assay described above and found to have agonist activity.

| Structure (SMILES) | EC50 [µM] |
| --- | --- |
| COc1ccc(C2CCCC(C)(O)C2)cc1C(=O)Nc1c(C(=O)Nc2ccc(F)c(C(F)(F)F)c2)sc2cc(C(F)(F)F)ccc12 (single isomer, unassigned) [Example 36, N-(4-fluoro-3-(trifluoromethyl)phenyl)-3-(5-(3-hydroxy-3-methylcyclohexyl)-2-methoxybenzamido)-6-(trifluoromethyl)benzo[b]thiophene-2-carboxamide] | 0.244 |
| COc1ccc(C2CCC(C)(O)CC2)cc1C(=O)Nc1c(C(=O)Nc2ccc(F)c(C(F)(F)F)c2)sc2cc(C(F)(F)F)ccc12 (single isomer, unassigned) [Example 37, N-(4-fluoro-3-(trifluoromethyl)phenyl)-3-(5-(4-hydroxy-4-methylcyclohexyl)-2-methoxybenzamido)-6-(trifluoromethyl)benzo[b]thiophene-2-carboxamide] | 0.158 |
| COc1ccc(C2CCC(C)(O)CC2)cc1C(=O)Nc1c(C(=O)Nc2ccc(F)c(C(F)(F)F)c2)sc2cc(C(F)(F)F)ccc12 (single isomer, unassigned) [Example 38, N-(4-fluoro-3-(trifluoromethyl)phenyl)-3-(5-(4-hydroxy-4-methylcyclohexyl)-2-methoxybenzamido)-6-(trifluoromethyl)benzo[b]thiophene-2-carboxamide] | 0.194 |
| COc1ccc(CCCO)cc1C(=O)Nc1c(C(=O)NC2CCCC(C(F)(F)F)C2)sc2cc(C(F)(F)F)ccc12 (single isomer, unassigned) [Example 44, 3-(5-(3-hydroxypropyl)-2-methoxybenzamido)-6-(trifluoromethyl)-N-(3-(trifluoromethyl)cyclohexyl) benzo[b]thiophene-2-carboxamide] | 3.74 |
| COc1ccc(C2CC2C(=O)O)cc1C(=O)Nc1c(C(=O)Nc2ccc(F)c(C(F)(F)F)c2)sc2cc(C(F)(F)F)ccc12 (single isomer, unassigned) [Example 47, 2-(3-((2-((4-fluoro-3-(trifluoromethyl)phenyl)carbamoyl)-6-(trifluoromethyl)benzo[b]thiophen-3-yl)carbamoyl)-4-methoxyphenyl) cyclopropane-1-carboxylic acid] | 1.06 |
| COc1ccc(C2CC2C(=O)O)cc1C(=O)Nc1c(C(=O)Nc2ccc(F)c(C(F)(F)F)c2)sc2cc(C(F)(F)F)ccc12 (single isomer, unassigned) [Example 48, 2-(3-((2-((4-fluoro-3-(trifluoromethyl)phenyl)carbamoyl)-6-(trifluoromethyl)benzo[b]thiophen-3-yl)carbamoyl)-4-methoxyphenyl) cyclopropane-1-carboxylic acid] | 0.0584 |
| COc1ccc(C2=NOC3CN(CC(C)(C)O)CC23)cc1C(=O)Nc1c(C(=O)Nc2ccc(F)c(C(F)(F)F)c2)sc2cc(C(F)(F)F)ccc12 (single isomer, unassigned) [Example 53, N-(4-fluoro-3-(trifluoromethyl)phenyl)-3-(5-(5-(2-hydroxy-2-methylpropyl)-3a, 5,6,6a-tetrahydro-4H-pyrrolo[3,4-d]isoxazol-3-yl)-2-methoxybenzamido)-6-(trifluoromethyl)benzo[b]thiophene-2-carboxamide] | 0.071 |
| COc1ccc(C2=NOC3CN(CC(C)(C)O)CC23)cc1C(=O)Nc1c(C(=O)Nc2ccc(F)c(C(F)(F)F)c2)sc2cc(C(F)(F)F)ccc12 (single isomer, unassigned) [Example 54, N-(4-fluoro-3-(trifluoromethyl)phenyl)-3-(5-(5-(2-hydroxy-2-methylpropyl)-3a, 5,6,6a-tetrahydro-4H-pyrrolo[3,4-d]isoxazol-3-yl)-2-methoxybenzamido)-6-(trifluoromethyl)benzo[b]thiophene-2-carboxamide] | 0.306 |
| COc1ccc(C2=NOC3CC(C(C)(C)O)CC23)cc1C(=O)Nc1c(C(=O)Nc2ccc(F)c(C(F)(F)F)c2)sc2cc(C(F)(F)F)ccc12 (single isomer, unassigned) [Example 55, N-(4-fluoro-3-(trifluoromethyl)phenyl)-3-(5-(5-(2-hydroxypropan-2-yl)-3a, 5,6,6a-tetrahydro-4H-cyclopenta[d]isoxazol-3-yl)-2-methoxybenzamido)-6-(trifluoromethyl)benzo[b]thiophene-2-carboxamide] | 0.32 |
| COc1ccc(C2=NOC3CC(C(C)(C)O)CC23)cc1C(=O)Nc1c(C(=O)Nc2ccc(F)c(C(F)(F)F)c2)sc2cc(C(F)(F)F)ccc12 (single isomer, unassigned) [Example 56, N-(4-fluoro-3-(trifluoromethyl)phenyl)-3-(5-(5-(2-hydroxypropan-2-yl)-3a, 5,6,6a-tetrahydro-4H-cyclopenta[d]isoxazol-3-yl)-2-methoxybenzamido)-6-(trifluoromethyl)benzo[b]thiophene-2-carboxamide] | 0.0095 |
| COc1ccc(C2CCCC(NC3COC3)C2)cc1C(=O)Nc1c(C(=O)Nc2ccc(F)c(C(F)(F)F)c2)sc2cc(C(F)(F)F)ccc12 (single isomer, unassigned) [Example 60, N-(4-fluoro-3-(trifluoromethyl)phenyl)-3-(2-methoxy-5-(3-(oxetan-3-ylamino)cyclohexyl)benzamido)-6-(trifluoromethyl) benzo[b] thiophene-2-carboxamide] | 0.743 |
| COc1ccc(C2CCCC(NC3COC3)C2)cc1C(=O)Nc1c(C(=O)Nc2ccc(F)c(C(F)(F)F)c2)sc2cc(C(F)(F)F)ccc12 (single isomer, unassigned) [Example 61, N-(4-fluoro-3-(trifluoromethyl)phenyl)-3-(2-methoxy-5-(3-(oxetan-3-ylamino)cyclohexyl)benzamido)-6-(trifluoromethyl) benzo[b] thiophene-2-carboxamide] | 0.599 |
| COc1ccc(C2CCCC(NC3COC3)C2)cc1C(=O)Nc1c(C(=O)Nc2ccc(F)c(C(F)(F)F)c2)sc2cc(C(F)(F)F)ccc12 (single isomer, unassigned) [Example 62, N-(4-fluoro-3-(trifluoromethyl)phenyl)-3-(2-methoxy-5-(3-(oxetan-3-ylamino)cyclohexyl)benzamido)-6-(trifluoromethyl) benzo[b] thiophene-2-carboxamide] | 1.46 |
| COc1ccc(C2CCCC(NC3COC3)C2)cc1C(=O)Nc1c(C(=O)Nc2ccc(F)c(C(F)(F)F)c2)sc2cc(C(F)(F)F)ccc12 (single isomer, unassigned) [Example 63, N-(4-fluoro-3-(trifluoromethyl)phenyl)-3-(2-methoxy-5-(3-(oxetan-3-ylamino)cyclohexyl)benzamido)-6-(trifluoromethyl) benzo[b] thiophene-2-carboxamide] | 2.06 |
| COc1ccc(N2CCCC(CC(=O)O)C2)cc1C(=O)Nc1c(C(=O)Nc2ccc(F)c(C(F)(F)F)c2)sc2cc(C(F)(F)F)ccc12 (single isomer, unassigned) [Example 64, 2-(1-(3-((2-((4-fluoro-3-(trifluoromethyl)phenyl)carbamoyl)-6-(trifluoromethyl)benzo[b]thiophen-3-yl)carbamoyl)-4-methoxyphenyl)piperidin-3-yl)acetic acid] | 0.293 |
| COc1ccc(N2CCCC(CC(=O)O)C2)cc1C(=O)Nc1c(C(=O)Nc2ccc(F)c(C(F)(F)F)c2)sc2cc(C(F)(F)F)ccc12 (single isomer, unassigned) [Example 65, 2-(1-(3-((2-((4-fluoro-3-(trifluoromethyl)phenyl)carbamoyl)-6-(trifluoromethyl)benzo[b]thiophen-3-yl)carbamoyl)-4-methoxyphenyl)piperidin-3-yl)acetic acid] | 0.662 |
| COc1ccc(C2CCCN(CCO)CC2)cc1C(=O)Nc1c(C(=O)Nc2ccc(F)c(C(F)(F)F)c2)sc2cc(C(F)(F)F)ccc12 (single isomer, unassigned) [Example 69, N-(4-fluoro-3-(trifluoromethyl)phenyl)-3-(5-(1-(2-hydroxyethyl)azepan-4-yl)-2-methoxy-benzamido)-6-(trifluoromethyl) benzo[b] thiophene-2-carboxamide] | 0.76 |
